Source: US11970512B2, “Amphotericin B derivatives with improved therapeutic index” (The Board of Trustees of the University of Illinois, priority 2013, dated 2024)
Values after ≈ are worked out from the molar mass of the structure shown. Where two headings read alike, the source gives them in different places.

What was measured:
Candida albicans = assay: Broth microdilution assay (MIC) against C. albicans; assay type: cell-based; conditions: read-out: MIC (μM) against C. albicans
Method: Urea derivatives 2-4 maintain potent antifungal activity ranging from 0.125 μM to 3 μM against S. cerevisiae. […] AmBCU required 324 μM to cause 90% hemolysis in red blood cells, more than 30× required by AmB. Encouraged by this initial therapeutic index screen the urea series was further tested against the clinically relevant fungal cell line Candida albicans. C. albicans is the most common human fungal infection. AmB inhibits yeast grown of C. albicans at 0.25 μM. Similar to the trend seen with S. cerevisiae, the potency of urea derivatives […] increased with increasing amount of cationic character. AmBAU, AmBMU, and AmBCU require 0.25, 0.5, and 1 μM respectively (Table 2).
(§1) Each derivative proposed herein is tested for biological activity against both yeast and human cells to determine its therapeutic index. A broth microdilution experiment determines the MIC (minimum inhibitory concentration) of each derivative against S. cerevisiae and the clinically relevant C. albicans, thereby establishing the antifungal activity of each novel derivative. To test for toxicity against human cells, each compound is exposed to a hemolysis assay against red blood cells which determines the concentration required to cause 90% lysis of human red blood cells (EH90). Additionally, each compound is exposed to human primary renal tubule cells to determine the toxicity of each compound against kidney cells. These assays when compared against the known values of AmB against the same cell lines determine the improvement in therapeutic index of each compound.

C. albicans = assay: Mouse model of disseminated candidiasis, kidney fungal burden; assay type: in vivo; conditions: neutropenic mice; for reduction of kidney fungal burden relative to AmB: single intraperitoneal 16 mg/kg dose, 24 hours post inoculation; for reducing the fungal burden present in the kidneys, compared with AmB (in words): single intraperitoneal dose, all three tested doses (1, 4, and 16 mg/kg)
Method: FIG. 39 is a group of three graphs depicting kidney fungal load (colony forming units, cfu) in neutropenic mice inoculated intravenously with C. albicans and then treated two hours later with a single intraperitoneal dose of vehicle control, AmB, AmBMU, or AmBAU. FIG. 39A, 1 mg/kg AmB, AmBMU, or AmBAU. FIG. 39B, 4 mg/kg AmB, AmBMU, or AmBAU. FIG. 39C, 16 mg/kg AmB, AmBMU, or AmBAU.
The antifungal efficacies of AmBMU and AmBAU were tested in a mouse model of disseminated candidiasis. In this experiment neutropenic mice were infected with C. albicans via the tail vein, and then 2 hours post infection the mice were treated with a single intraperitoneal injection of AmB, AmBMU, or AmBAU. Then 2, 6, 12, and 24 hours post infection the mice were sacrificed, and the fungal burden present in their kidneys was quantified. […] The differences were most pronounced at the 16 mg/kg dose at 24 hours post inoculation. Relative to AmB, AmBMU reduced the fungal burden by 1.2 log units (p≤0.001), and AmBAU reduced the fungal burden by nearly 3 log units (p≤0.0001).

human erythrocytes = assay type: cell-based; conditions: for EH90 as multiple of that observed with AmB: human
Method: (§2) With efficient access to this novel AmB chemotype, ureas 2-4 were compared to AmB and a range of previously reported AmB derivatives in an in vitro antifungal and human cell toxicity screen. Yeast toxicity was measured with broth microdilution assays (MIC) against Saccharomyces cerevisiae. Human cell toxicity was studied by determining the amount of compound required to cause 90% hemolysis of human erythrocytes (EH90). […] Methyl esterification (AmBME) retains antifungal activity at 0.25 μM against S. cerevisiae, while decreasing hemolysis concentration to one third that seen with AmB. […] Hemolysis activity remained similar to AmBME and C41MeAmB. Bis-amino alkylated amide derivative AmBNR2 was previously shown to moderately improve the therapeutic index.^[19]
as §1

Saccharomyces cerevisiae = assay: Broth microdilution assay (MIC) against Saccharomyces cerevisiae; assay type: cell-based; conditions: read-out: MIC (μM) S.cerevisiae
Method: as §2, §1

[1] = Acute toxicity, single intravenous administration to healthy mice, lethality; assay type: in vivo
Method: FIG. 40 is a graph depicting lethality in healthy mice of single intravenous administration in the doses indicated of AmB, AmBMU, or AmBAU.
In a separate set of experiments, acute toxicity was evaluated by single intravenous administration of 1, 2, 4, 8, 16, 32, or 64 mg/kg AmB or its derivatives to healthy mice, followed by monitoring for lethality. […] AmBAU was drastically less toxic with >50% lethality not being reached until the 64 mg/kg dosage group.

yeast = conditions: in vitro studies; cited from earlier work
[2] = Candida albicans, broth microdilution
[3] = Saccharomyces cerevisiae, broth microdilution

Compound: CNC(=O)N[C@H]1C2C[C@@H](OC3OC(C)C(O)C(N)C3O)/C=C/C=C/C=C/C=C/C=C/C=C/C=C/[C@H](C)[C@@H](O)[C@@H](C)[C@H](C)OC(=O)C[C@H](O)C[C@H](O)CC[C@@H](O)[C@H](O)C[C@H](O)C[C@](O)(C[C@@H]1O)O2 (stereo partly drawn) [AmBMU]
- MIC (Candida albicans; [2]): 0.5 µM (≈ 0.476 µg/mL)
- reduction of kidney fungal burden relative to AmB (C. albicans): 1.2 log units
- reducing the fungal burden present in the kidneys, compared with AmB (in words) (C. albicans): substantially more effective than AmB
- cell-killing activity / toxicity towards human red blood cells (in words) (human erythrocytes): drastically decreased toxicity towards red blood cells
- EH90 as multiple of that observed with AmB (human erythrocytes): greater than 45 ×
- MIC (Saccharomyces cerevisiae; [3]): 0.25 µM (≈ 0.238 µg/mL)
- lethality ([1]; single intravenous 64 mg/kg): survived with no observable toxicity

Compound: COC(=O)[C@H]1[C@@H]2C[C@@H](O[C@@H]3O[C@H](C)[C@@H](O)[C@H](N)[C@@H]3O)/C=C/C=C/C=C/C=C/C=C/C=C/C=C/[C@H](C)[C@@H](O)[C@@H](C)[C@H](C)OC(=O)C[C@H](O)C[C@H](O)CC[C@@H](O)[C@H](O)C[C@H](O)C[C@](O)(C[C@@H]1O)O2 [AmBME, reference compound]
- EH90 (μM) red blood cells (human erythrocytes): 30.67 ± 5.38 µM
- hemolysis concentration relative to AmB (human erythrocytes): one third
- MIC (Saccharomyces cerevisiae; broth microdilution): 0.25 µM (≈ 0.235 µg/mL)

Compound: CC1C=CC=CC=CC=CC=CC=CC=CC(OC2CC(N)C(O)C(C)O2)CC2OC(O)(CC(O)CC(O)C(O)CCC(O)CC(O)CC(=O)OC(C)C(C)C1O)CC(O)C2C(=O)O (stereo not drawn) [C2′deOAmB]
- toxicity to yeast (yeast): toxic to yeast

Compound: CC1OC(O[C@H]2/C=C/C=C/C=C/C=C/C=C/C=C/C=C/[C@H](C)[C@@H](O)[C@@H](C)[C@H](C)OC(=O)C[C@H](O)C[C@H](O)CC[C@@H](O)[C@H](O)C[C@H](O)C[C@]3(O)C[C@H](O)[C@@H](NC(=O)NCCC(=O)O)C(C2)O3)C(O)C(N)C1O (stereo partly drawn) [AmBCU]
- MIC (Candida albicans; [2]): 1 µM (≈ 1.01 µg/mL)
- cell-killing activity / toxicity towards human red blood cells (in words) (human erythrocytes): drastically decreased toxicity towards red blood cells
- EH90 as multiple of that observed with AmB (human erythrocytes): more than 30 ×
- MIC (Saccharomyces cerevisiae; [3]): 3 µM (≈ 3.03 µg/mL)

Compound: C[C@@H]1[C@H](O)[C@@H](C)/C=C/C=C/C=C/C=C/C=C/C=C/C=C/[C@H](O[C@@H]2O[C@H](C)[C@@H](O)[C@H](N)[C@@H]2O)C[C@@H]2O[C@](O)(C[C@@H](O)C[C@@H](O)[C@H](O)CC[C@@H](O)C[C@@H](O)CC(=O)O[C@H]1C)C[C@H](O)[C@H]2C(=O)O [AmB, amphotericin B]
- MIC (Candida albicans; broth microdilution): 0.25 µM (≈ 0.231 µg/mL)
- MIC (Saccharomyces cerevisiae; broth microdilution): 0.5 µM (≈ 0.462 µg/mL)
- lethality ([1]; single intravenous 4 mg/kg): All mice in the 4 mg/kg AmB dosage group died within seconds

Compound: CNC(=O)[C@H]1[C@@H]2C[C@@H](O[C@@H]3O[C@H](C)[C@@H](O)[C@H](N)[C@@H]3O)/C=C/C=C/C=C/C=C/C=C/C=C/C=C/[C@H](C)[C@@H](O)[C@@H](C)[C@H](C)OC(=O)C[C@H](O)C[C@H](O)CC[C@@H](O)[C@H](O)C[C@H](O)C[C@](O)(C[C@@H]1O)O2 [AmBMA, reference compound]
- EH90 (μM) red blood cells (human erythrocytes): 15.32 ± 3.39 µM
- MIC (Saccharomyces cerevisiae; broth microdilution): 0.25 µM (≈ 0.234 µg/mL)

Compound: CC1OC(O[C@H]2/C=C/C=C/C=C/C=C/C=C/C=C/C=C/[C@H](C)[C@@H](O)[C@@H](C)[C@H](C)OC(=O)C[C@H](O)C[C@H](O)CC[C@@H](O)[C@H](O)C[C@H](O)C[C@]3(O)C[C@H](O)[C@@H](NC(=O)NCCN)C(C2)O3)C(O)C(N)C1O (stereo partly drawn) [AmBAU]
- MIC (Candida albicans; Candida albicans): 0.25 µM (≈ 0.245 µg/mL)
- reduction of kidney fungal burden relative to AmB (C. albicans): ~3 log units
- reducing the fungal burden present in the kidneys, compared with AmB (in words) (C. albicans): substantially more effective than AmB
- cell-killing activity / toxicity towards human red blood cells (in words) (human erythrocytes): drastically decreased toxicity towards red blood cells
- EH90 (μM) red blood cells (human erythrocytes; amount of compound required to cause 90% hemolysis of human erythrocytes): >500 µM
- MIC (Saccharomyces cerevisiae; Saccharomyces cerevisiae): 0.125 µM (≈ 0.123 µg/mL)
- dosage group at which >50% lethality was reached ([1]; single intravenous administration): 64 mg/kg
